Key:
Format in all cases: physicochemical
[1] = Membrane-permeation (MP) dissolution test
Protocol: The membrane permeability test described in the Examples below is carried out as follows. A drug-permeable membrane is placed between feed and permeate reservoirs. A sufficient quantity of test composition is added to a feed test medium and placed in the feed reservoir, while a water immiscible organic solution, such as a 60/40 mixture of decanol/decane, is placed in the permeate reservoir. Samples are removed from the permeate reservoir and analyzed for the concentration of drug as a function of time. […] Further details of this membrane permeation test are disclosed in U.S. Pat. No. 7,611,630 B2.
The MP-dissolution test, whose details are described above, measures a capability of low solubility drug formulations which is not measured in the microcentrifuge dissolution test utilized in Examples 4 and 7. This test mimics an aspect of the in vivo situation in the GI tract. In the in vivo situation, it is generally accepted that free drug in solution (i.e. individual drug molecules dissolved in the GI medium without association with formulation components) is the species which is absorbed across the gastrointestinal wall into the bloodstream. As free drug is absorbed, the formulation must be capable of supplying more free drug for absorption. The membrane permeation test measures the amount of drug which crosses a polymeric membrane (as a model of the GI wall) over time, and thus reflects the ability of the formulation to resupply free drug in solution to be further passively transported across the polymeric membrane. In Table 8.1 below, Maximum Flux is the maximum observed rate of permeation across the polymeric membrane, based on the slope of the absorption curve over any period within the 240 minute duration of the experiment, normalized for membrane area. Total drug recovery is the % of the initial drug dose which has crossed the membrane when the test ended at 240 minutes.
The membrane permeation test was carried out for 60% A enzalutamide SDDs with HPMCAS-M, HPMC E3 Prem, HPMCP-55, and Eudragit-L100, as described in Example 8.

[2] = Microcentrifuge dissolution test in Model Fasted Duodenal Solution; conditions: for Enzalutamide Concentration, 0 min / Enzalutamide Concentration, 4 min / Enzalutamide Concentration, 10 min / Enzalutamide Concentration, 20 min / Enzalutamide Concentration, 40 min / Enzalutamide Concentration, 90 min / Enzalutamide Concentration, 1200 min: MFDS pH 6.5; for Enzalutamide Concentration, 0 min / Enzalutamide Concentration, 4 min / Enzalutamide Concentration, 10 min / Enzalutamide Concentration, 20 min / Enzalutamide Concentration, 40 min / Enzalutamide Concentration, 90 min / Enzalutamide Concentration, 1200 min / AUC90 (area under the curve at 90 minutes) / Cmax, 90 (maximum drug concentration through 90 minutes): dose 200 μg/ml; for AUC90 (area under the curve at 90 minutes) / Cmax, 90 (maximum drug concentration through 90 minutes): Table 4.2, MFDS
Text: The in vitro dissolution test to evaluate enhanced drug concentration in aqueous solution can be conducted by (1) adding with agitation a sufficient quantity of control composition, that is, the crystalline enzalutamide alone, to the in vitro test medium, typically MFD or PBS solution, to determine the maximum concentration of the enzalutamide achieved under the conditions of the test; (2) adding with agitation a sufficient quantity of test composition (e.g., the enzalutamide and polymer) in an equivalent test medium, such that if all the enzalutamide dissolved, the theoretical concentration of enzalutamide would exceed the observed maximum concentration of enzalutamide by a factor of about 20; and (3) comparing the measured MDC and/or aqueous concentration versus time AUC90 of the test composition in the test medium with the maximum concentration, and/or the aqueous concentration versus time AUC90 of the control composition. In conducting such a dissolution test, the amount of test composition or control composition used is an amount such that if all of the enzalutamide dissolved, the test enzalutamide concentration would be at least about 20-fold that of the control enzalutamide concentration.
The concentration of dissolved enzalutamide is typically measured as a function of time by sampling the test medium and plotting enzalutamide concentration in the test medium vs. time so that the MDC can be ascertained. The MDC is taken to be the maximum value of dissolved enzalutamide measured over the duration of the test. The enzalutamide concentration versus time AUC90 is calculated by integrating the concentration versus time curve over any 90-minute time period between the time of introduction of the composition into the aqueous use environment (time equals zero) and 270 minutes following introduction to the use environment (time equals 270 minutes). Typically, when the composition reaches its MDC rapidly, in less than about 30 minutes, the time interval used to calculate AUC90 is from time equals zero to time equals 90 minutes. However, if the AUC90 over any 90-minute time period described above of a composition meets the criteria of compositions described herein, then the composition is included in compositions of this disclosure. The time period 270 min is chosen because of its physiological relevance. Drug absorption in mammals generally occurs in the small intestine, and the small intestinal transit time in humans is approximately 4.5 hr, or 270 min.
To avoid large enzalutamide particulates which would give an erroneous determination, the test solution is either filtered or centrifuged. “Dissolved enzalutamide” is typically taken as that material that either passes a 0.45 micron syringe filter or, alternatively, the material that remains in the supernatant following centrifugation. Filtration can be conducted using a 13 mm, 0.45 micron polyvinylidine difluoride syringe filter, such as the filter sold by Scientific Resources under the trademark TITAN′. Centrifugation is typically carried out in a polypropylene microcentrifuge tube by centrifuging at 13,000 G for 60 seconds. Other similar filtration or centrifugation methods can be employed and useful results obtained. For example, using other types of microfilters may yield values somewhat higher or lower (+/−10-40%) than that obtained with the filter specified above but will still allow identification of dispersions. It is recognized that this definition of “dissolved enzalutamide” encompasses not only monomeric solvated enzalutamide molecules but also a wide range of species such as polymer/enzalutamide assemblies that have submicron dimensions such as enzalutamide aggregates, aggregates of mixtures of polymer and enzalutamide, micelles, polymeric micelles, colloidal particles, polymer/enzalutamide complexes, and other such enzalutamide-containing species that are present in the filtrate or supernatant in the specified dissolution test. […]

[3] = SEM particle morphology before and after 1 day at 50° C./75% RH; conditions: after 1 day exposure to 50° C./75% RH
Protocol: Scanning electron micrographs (SEMs) were obtained for samples before and after 1 day exposure to a 50° C./75% RH environment. After exposure of these samples to this challenging storage environment, no crystals were seen, indicative of the ability of these samples to maintain the amorphous character of enzalutamide. […] Thus these three embodiments would require controlled storage conditions to maintain their efficacy.

[4] = Glass transition temperature by modulated DSC as a function of relative humidity
Protocol: Below Tg, an amorphous material is said to be in a “glassy” state in which molecular mobility is severely restricted. […] Glass transition temperatures Tg were determined for amorphous enzalutamide, and for spray-dried dispersions (SDDs) of enzalutamide with HPMCAS-M or PVP-VA64, at <5% and 75% relative humidity (RH). Tgs were determined by modulated differential scanning calorimetry (mDSC), utilizing the following protocol. Samples (about 5 mg) were equilibrated at the desired RH overnight in an environmental chamber at ambient temperature. The samples were then loaded into pans and sealed inside the environmental chamber. The samples were analyzed on a Q1000 mDSC (TA Instruments, New Castle, Delaware). Samples were typically scanned over the temperature range of −40° C. to 180° C., at a scan rate of 2.5° C./min, and a modulation rate of ±1.5° C./min. The data sampling interval was 0.20 sec/point. The Tg was calculated based on half height.

[5] = Microcentrifuge dissolution test after suspension in 0.5% methylcellulose for 2 hours
Protocol: Drugs and drug formulations are sometimes dosed as aqueous suspensions, particularly for pediatric patients. The ability of various enzalutamide SDDs to retain their ability to maintain drug supersaturation in vitro was assessed by using the microcentrifuge dissolution test to measure drug dissolution after suspension in 0.5% methylcellulose in water for 2 hours. Methylcellulose is a standard viscosifying suspending agent which is used to maintain drug particles in suspension in oral suspension dosage forms. The table below presents in vitro dissolution performance before and after suspension in 0.5% methylcellulose.

[6] = Table 8.1, within 240 minutes, normalized for membrane area
[7] = 0 hr, before suspension in aqueous 0.5% methylcellulose
[8] = 2 hr, after suspension for 2 hr in aqueous 0.5% methylcellulose

CNC(=O)c1ccc(N2C(=S)N(c3ccc(C#N)c(C(F)(F)F)c3)C(=O)C2(C)C)cc1F [Crystalline enzalutamide (Control 1)]
Maximum Flux [1, 6]: 0.4 μg/cm^2 × min | Maximum Flux ([1]; Table 9.3): 0.4 μg/cm^2-min | Enzalutamide Concentration, 0 min ([2]; 0 min): 0.0 µg/mL | Enzalutamide Concentration, 4 min ([2]; 4 min): 1 µg/mL | Enzalutamide Concentration, 10 min ([2]; 10 min): 3 µg/mL | Enzalutamide Concentration, 20 min ([2]; 20 min): 5 µg/mL | Enzalutamide Concentration, 40 min ([2]; 40 min): 6 µg/mL | Enzalutamide Concentration, 90 min ([2]; 90 min): 7 µg/mL | Enzalutamide Concentration, 1200 min ([2]; 1200 min): 9 µg/mL | AUC90 (area under the curve at 90 minutes) [2]: 500 µg·min/mL | Cmax, 90 (maximum drug concentration through 90 minutes) [2]: 7 µg/mL | In vitro dissolution, Average, 0 min ([2]; Table 9.1, 0 min): 0.32 µg/mL | In vitro dissolution, Average, 4 min ([2]; Table 9.1, 4 min): 5.23 µg/mL | In vitro dissolution, Average, 10 min ([2]; Table 9.1, 10 min): 8.04 µg/mL | In vitro dissolution, Average, 20 min ([2]; Table 9.1, 20 min): 7.69 µg/mL | In vitro dissolution, Average, 40 min ([2]; Table 9.1, 40 min): 8.65 µg/mL | In vitro dissolution, Average, 90 min ([2]; Table 9.1, 90 min): 9.14 µg/mL | In vitro dissolution, Average, 1200 min ([2]; Table 9.1, 1200 min): 12.12 µg/mL | AUC90 min ([2]; Table 9.2): 740 µg·min/mL | Cmax, 90 min ([2]; Table 9.2): 10 µg/mL

CNC(=O)c1ccc(N2C(=S)N(c3ccc(C#N)c(C(F)(F)F)c3)C(=O)C2(C)C)cc1F [Amorphous (spray-dried) enzalutamide - BREC-0035-09B(V)]
Maximum Flux [1, 6]: 1.3 μg/cm^2 × min | Enzalutamide Concentration, 0 min ([2]; 0 min): 0.0 µg/mL | Enzalutamide Concentration, 4 min ([2]; 4 min): 61 µg/mL | Enzalutamide Concentration, 10 min ([2]; 10 min): 100 µg/mL | Enzalutamide Concentration, 20 min ([2]; 20 min): 100 µg/mL | Enzalutamide Concentration, 40 min ([2]; 40 min): 110 µg/mL | Enzalutamide Concentration, 90 min ([2]; 90 min): 120 µg/mL | Enzalutamide Concentration, 1200 min ([2]; 1200 min): 30 µg/mL | AUC90 (area under the curve at 90 minutes) [2]: 9,500 min*μg/mL | Cmax, 90 (maximum drug concentration through 90 minutes) [2]: 120 µg/mL | fusion of particles to larger particles by SEM after storage challenge [3]: fusion of particles to form larger particles | Tg ([4]; 75% RH): 64.0 °C | Tg ([4]; <5% RH): 88.5 °C | AUC90 [5, 7]: 8,900 min · mcg/ml | Cmax 90 [5, 7]: 110 µg/mL | AUC90 [5, 8]: 8,800 min · mcg/ml | Cmax 90 [5, 8]: 100 µg/mL

— patent US11839689B2, “Formulations of enzalutamide” (Astellas Pharma Inc., priority 2012, dated 2023)
